Here are results for 13 compounds from patent US4510136A (priority 1983, dated 1985).

The subject of data set [1] is Puccinia recondita var. tritici. The data set can be described thus: Wheat leaf rust control on sprayed wheat seedlings (Example 79). Particulars: Puccinia recondita, 168 h; 100 ppm spray, day before inoculation. Type of data set: in vivo. In a few lines: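 Disease was scored as leaf rust pustules 7 days after a 24 h, 20° saturated-humidity incubation of seedlings inoculated with P. recondita var. tritici spores. Inoculation followed by one day a run-off spray of 100 ppm compound in water containing 6% acetone and 250 ppm TREM 014.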

The next data set deals with Erysiphe cichoracearum. In words: Cucumber powdery mildew control on sprayed cucumber seedlings (Example 80). Type of data set: in vivo. Particulars: Golovinomyces cichoracearum, 168 h, 100 ppm spray, day before inoculation.
The next data set deals with Venturia inaequalis. In words: Apple scab control on sprayed apple seedlings (Example 82). Type of data set: in vivo. Conditions: Venturia inaequalis, 100 ppm spray, day before inoculation.
A further data set relates to Helminthosporium maydis. In words: Southern corn leaf blight control on sprayed corn seedlings (Example 83). Type of data set: in vivo. Conditions: Bipolaris maydis, 192 h, 100 ppm spray, day before inoculation. In a few lines:
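Corn seedlings were sprayed to run-off with 100 ppm suspensions (6% acetone, 250 ppm TREM 014) and spore-inoculated the following day. Disease and growth reduction were rated after 24 h saturated humidity at 20° plus 7 days in a growth room.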

The next data set has as its system Cercospora arachidicola. The data set can be described thus: Peanut early leafspot control on sprayed peanut seedlings (Example 84). Type of data set: in vivo. Conditions: Mycosphaerella arachidis, 360 h, 100 ppm spray, day before inoculation; read-out: % Control Peanut Easly Leafspot.
A further data set has as its system Monilinia fructicola. The data set can be described thus: Stone fruit brown rot control on dipped canned peach halves (Example 86). Conditions: 120 h, 100 ppm dip, percent growth inhibition of colonies after five days. An excerpt: Several compounds of the previous examples were again dissolved in acetone in an amount equal to 5% of the final volume and then suspended at a concentration of 100 ppm in purified water containing 700 ppm of the surfactant TREM 014 (polyhydric alcohol esters). Canned peach halves were dipped in this suspension for three minutes and then placed to air dry in sterile containers. Upon drying, the peach halves were inoculated with two pieces of Monilinia fructicola mycelium, causal agent of stone fruit brown rot, and incubated in the sterile containers for five days. At that time the radii of the colonies' growth were measured on each peach. […] Percent disease control (percent growth inhibition of colonies on treated peaches as compared to that of colonies on untreated peaches) is expressed in the table below.

In another data set the test system is Rhizoctonia solani. In words: Rice sheath blight control on sprayed rice seedlings (Example 87). Type of data set: in vivo. Conditions: Rhizoctonia solani, 168 h, 100 ppm spray, day before inoculation. The gist of the method: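 Disease ratings followed 7 days' growth-room incubation of seedlings given a bran/R. solani mycelium inoculum. Inoculation took place one day after spraying to run-off. The spray was a 100 ppm compound suspension in water containing 6% acetone and 250 ppm TREM 014.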

A further data set concerns Pyricularia oryzae. The data set can be described thus: whole plant or invertebrate. Type of data set: in vivo. Particulars: Pyricularia oryzae, 168 h, read-out: % Control of Rice Blast, 100 ppm spray, day before inoculation.
Another data set concerns Phytophthora infestans. In words: whole plant or invertebrate. Type of data set: in vivo. Conditions: Phytophthora infestans, in Solanum lycopersicum, 168 h, read-out: % Control of Tomato Late Blight, 100 ppm spray, day before inoculation.
For the next data set, the system named is cucumber seedlings. In words: Phytotoxicity on cucumber seedlings (Example 80). Type of data set: in vivo. Details: key: G = growth reduction; H = hormonal effects. Conditions: 100 ppm spray. On the procedure:
The compounds of the previous example were again dissolved in acetone in an amount equal to 6% of the final volume and then suspended at a concentration of 100 ppm in purified water containing 250 ppm of the surfactant TREM 014 (polyhydric alcohol esters). These suspensions were sprayed to the point of run-off, on cucumber seedlings. The following day, the plants were inoculated with a spore suspension of the fungus Erysiphe cichoracearum, causal agent of cucumber powdery mildew, and incubated in a growth room for 7 days. Disease ratings were then made. Treated plants from successful treatments had little or no powdery mildew in contrast to untreated plants which were covered with powdery mildew. Phytotoxicity in the form of growth reduction or hormonal effects was observed on some of the plants in association with disease control.

Take `CCCC[Si](C)(Cn1cncn1)c1ccc(-c2ccccc2)cc1` (stereo not shown) [(1,1'-Biphenyl-4-yl)butyl(methyl)(1H-1,2,4-triazol-1-ylmethyl)silane]: the pest or weed control at 100 ppm in data set [1] worked out at 90%; in the data set on Erysiphe cichoracearum, 100%; with Venturia inaequalis, 80%; with Helminthosporium maydis, 50%; in the data set with Cercospora arachidicola, 100%; with Rhizoctonia solani, 80%. Also, the pest or weed control at 100 ppm in the data set on Pyricularia oryzae stood at 100%; with Phytophthora infestans, 0%. For the same compound, 100 µg/mL produced 0% inhibition of growth in the data set with Monilinia fructicola.
Take `C[Si](Cn1cncn1)(c1ccc(Br)cc1)c1ccc(Br)cc1` [[bis(4-Bromophenyl)]methyl(1H-1,2,4-triazol-1-ylmethyl)silane]: the pest or weed control at 100 ppm amounted to 0% in [1]; 80% with Erysiphe cichoracearum; 80% with Venturia inaequalis; 0% in the data set with Helminthosporium maydis; 100% with Cercospora arachidicola; 0% in the data set with Rhizoctonia solani. For the same compound, the figures for the pest or weed control at 100 ppm with Pyricularia oryzae and in the data set with Phytophthora infestans were 90% and 0%, respectively. For the same compound, the Phytotoxicity on cucumber entry in the data set on cucumber seedlings was “G”.
With `C[Si](C)(Cn1cncn1)c1ccc(OC(F)(F)F)cc1` [Dimethyl(4-trifluoromethoxyphenyl)(1H-1,2,4-triazol-1-ylmethyl)silane], the pest or weed control at 100 ppm was determined as 100% in [1]; 100% in the data set with Erysiphe cichoracearum; 90% in the data set on Venturia inaequalis; 80% in the data set on Helminthosporium maydis; 50% with Cercospora arachidicola; 0% in the data set with Rhizoctonia solani. For the same compound, the pest or weed control at 100 ppm in the data set on Pyricularia oryzae and with Phytophthora infestans was 0% in each case. In addition, in the data set on cucumber seedlings, the Phytotoxicity on cucumber result is reported as “G”.
Take `CCCC[Si](C)(CCCC)Cn1cncn1` [Dibutyl(methyl)(1H-1,2,4-triazol-1-ylmethyl)silane]: the pest or weed control at 100 ppm (in [1]; in the data set with Erysiphe cichoracearum; in the data set with Venturia inaequalis; in the data set with Helminthosporium maydis; in the data set on Cercospora arachidicola; in the data set with Rhizoctonia solani) was 0% in each case. Besides, the pest or weed control at 100 ppm with Pyricularia oryzae turned out to be 80%; with Phytophthora infestans, 0%. Besides, the inhibition of growth (usually the drop in the measured response relative to a control, in per cent) at 100 µg/mL with Monilinia fructicola came to 81%.
As for `O[Si](Cn1cncn1)(c1ccc(F)cc1)c1ccc(F)cc1` [bis(4-Fluorophenyl)hydroxy(1H-1,2,4-triazol-1-ylmethyl)silane], the pest or weed control at 100 ppm in data set [1] was 90%; in the data set on Erysiphe cichoracearum it was 100%; in the data set with Venturia inaequalis, 100%; with Helminthosporium maydis, 100%; in the data set with Cercospora arachidicola it was 100%; in the data set with Rhizoctonia solani it was 0%. The pest or weed control at 100 ppm with Pyricularia oryzae and with Phytophthora infestans was 0% each time. In addition, in the data set with cucumber seedlings, the Phytotoxicity on cucumber entry is “H”.
With `COc1cccc([Si](C)(C)Cn2cncn2)c1OC` [(2,3-Dimethoxyphenyl)dimethyl(1H-1,2,4-triazol-1-ylmethyl)silane], the pest or weed control at 100 ppm in data set [1] worked out at 0%; with Erysiphe cichoracearum, 100%; in the data set with Venturia inaequalis, 0%; with Helminthosporium maydis it was 0%; with Cercospora arachidicola, 0%; with Rhizoctonia solani, 0%. Further, the pest or weed control at 100 ppm with Pyricularia oryzae and in the data set with Phytophthora infestans was 0% throughout. In addition, in the data set on cucumber seedlings, the Phytotoxicity on cucumber result is given as “G”.
Take `COc1cccc(OC)c1[Si](C)(C)Cn1cncn1` [(2,6-Dimethoxyphenyl)dimethyl(1H-1,2,4-triazol-1-ylmethyl)silane]: the pest or weed control at 100 ppm in data set [1] was 0%; with Erysiphe cichoracearum it was 100%; with Venturia inaequalis, 0%; in the data set with Helminthosporium maydis, 0%; with Cercospora arachidicola, 0%; with Rhizoctonia solani, 0%. Further, the pest or weed control at 100 ppm in the data set on Pyricularia oryzae and in the data set with Phytophthora infestans was 0% each time. Further, the Phytotoxicity on cucumber entry in the data set on cucumber seedlings is listed as “G”.
In the case of `C[Si](C)(Cn1cncn1)C1CCCCC1` [Cyclohexyl(dimethyl)(1H-1,2,4-triazol-1-ylmethyl)silane], the pest or weed control at 100 ppm was 0% in [1]; 100% in the data set on Erysiphe cichoracearum; 0% in the data set on Venturia inaequalis; 50% in the data set on Helminthosporium maydis; 0% with Cercospora arachidicola; 0% in the data set on Rhizoctonia solani. Besides, the pest or weed control at 100 ppm in the data set on Phytophthora infestans stood at 0%. The Phytotoxicity on cucumber result with cucumber seedlings is “G”.
`COc1ccccc1[Si](C)(C)Cn1cncn1` [(2-Methoxyphenyl)dimethyl(1H-1,2,4-triazol-1-ylmethyl)silane]: the pest or weed control at 100 ppm came out at 0% in [1]; 100% with Erysiphe cichoracearum; 80% with Venturia inaequalis; 70% in the data set on Helminthosporium maydis; 0% with Cercospora arachidicola; 0% with Rhizoctonia solani. For the same compound, the pest or weed control at 100 ppm in the data set with Pyricularia oryzae and with Phytophthora infestans was 0% throughout. Also, the Phytotoxicity on cucumber result with cucumber seedlings is given as “G”.
For `O[Si](Cn1cncn1)(c1ccc(Cl)cc1)c1ccc(Cl)cc1` [bis(4-Chlorophenyl)hydroxy(1H-1,2,4-triazol-1-ylmethyl)silane], the pest or weed control at 100 ppm stood at 90% in data set [1]; 100% in the data set with Erysiphe cichoracearum; 100% with Venturia inaequalis; 90% with Helminthosporium maydis; 100% in the data set with Cercospora arachidicola; 0% in the data set with Rhizoctonia solani. In addition, the pest or weed control at 100 ppm in the data set on Pyricularia oryzae and with Phytophthora infestans was 0% throughout. Besides, the Phytotoxicity on cucumber result in the data set with cucumber seedlings is on record as “H”.
In the case of `C[Si](C)(Cn1cncn1)c1ccc(C(F)(F)F)cc1` [Dimethyl(1H-1,2,4-triazol-1-ylmethyl)(4-trifluoromethylphenyl)silane], the pest or weed control at 100 ppm in data set [1] was 0%; in the data set on Erysiphe cichoracearum, 100%; with Venturia inaequalis it was 0%; in the data set with Helminthosporium maydis, 50%; in the data set with Cercospora arachidicola it was 0%; with Rhizoctonia solani, 0%. Further, the pest or weed control at 100 ppm with Pyricularia oryzae and with Phytophthora infestans was 0% in each case. Also, the Phytotoxicity on cucumber result in the data set on cucumber seedlings is “G”.
`C[Si](Cn1cncn1)(c1ccc(Cl)cc1Cl)c1ccc(Cl)cc1Cl` [bis(2,4-Dichlorophenyl)(methyl)(1H-1,2,4-triazol-1-ylmethyl)silane]: the pest or weed control at 100 ppm in [1] was determined as 100%; with Erysiphe cichoracearum, 100%; with Venturia inaequalis it was 100%; with Helminthosporium maydis it was 80%; in the data set with Cercospora arachidicola it was 100%; with Rhizoctonia solani, 0%. Also, the pest or weed control at 100 ppm with Pyricularia oryzae and in the data set on Phytophthora infestans was 0% each time. For the same compound, in the data set with cucumber seedlings, the Phytotoxicity on cucumber result is listed as “G”.
As to `C[Si](C)(Cn1cncn1)c1ccccc1Cl` [(2-Chlorophenyl)dimethyl(1H-1,2,4-triazol-1-ylmethyl)silane], the pest or weed control at 100 ppm was 0% in data set [1], 0% in the data set on Rhizoctonia solani, 100% in the data set with Pyricularia oryzae and 0% with Phytophthora infestans. Besides, in the data set with cucumber seedlings, the Phytotoxicity on cucumber entry is on record as “G”.
